In patent US10370405B2, “C-3 novel triterpenone with C-28 amide derivatives as HIV inhibitors” (HETERO LABS LIMITED, priority 2016, dated 2019):
Where two headings read alike, the source gives them in different places.

Assays:
HIV-1 strain 92HT599 = experiment: Antiviral activity: p24 estimation in MT2 cells infected with HIV-1; format: cell-based; settings: for IC50: Human immunodeficiency virus 1, MT2; for inhibition at 0.01 µM / inhibition at 0.1 µM / inhibition at 1 µM: Human immunodeficiency virus 1, MT2 cells, HIV-1 92HT599, p24, ~96 hours
Method: MT2 cells were infected with HIV-1 strain 92HT599 (10 TCID 50/30000 cells). The infected cells were plated at the concentration of ˜30 000 cells per well in 96 well plate. Test compound was added to the micro plate in defined format with the final concentration of DMSO (vehicle) is not more than 1%. Incubation was carried out in CO2 incubator for ˜96 hours for viral infection. At the end of incubation period an aliquot from each well was taken for p24 estimation. The quantitation of p24 is an index for antiviral activity of the compound. Percent inhibition was calculated with reference to control values (vehicle controls). P-24 estimation was carried out using Advance biosciences kit as per the procedure detailed by supplier.

[1] = Single dose oral pharmacokinetic study; format: in vivo; settings: mouse, plasma; Mice oral PK @30 mg/kg
Method: The test item was administered through oral route to animals (rat/mice) at 30 mg/kg dose in a suitable vehicle (10% Solutol+20% PEG) at 10 ml/kg dose volume. Blood samples (˜50 μL at each time point) were collected from retro-orbital plexus using K3 EDTA as anticoagulant in eppendorf tubes at defined time intervals 30 minutes, 1 hour, 2 hour, 4 hour, 8 hour, 24 hour & 48 hour under light ether anaesthesia. The samples were centrifuged at 3500×g to separate plasma and stored at −80° C. until analysis. Plasma […] for Mice were processed as per described in sample preparation.
Standard solutions of the test compound 1 mg/mL solutions were prepared in DMSO and further dilutions were made in methanol. The calibration curve samples for LCMSMS analysis were prepared by spiking 25 μl of Mice plasma with 2.5 μl and of the appropriate working standard solution to obtain final concentrations 0.078, 0.156, 0.312, 0.625, 1.25, 2.5, 5, 10, 20 & 40 µg/ml. To the test compound plasma extraction was carried out using Acetonitrile precipitation. After reconstitution with solvent (50% Acetonitrile in Buffer) samples were analyzed by LCMSMS to get the concentrations to calculate PK Parameters.

[2] = 0% serum, read-out: Antiviral activity IC50 (nM) 0%
[3] = read-out: Antiviral activity IC50 (nM) 40% serum

Method for in vitro: On day 1 calculate the number of cells required for the assay and seed 3×10^4 cells in 200 μl per well. Weigh the compound and dissolve it in DMSO to get 10 mM stock which is further diluted to 3 mM and 1 mM. The drugs from these stocks were added to plate to get final concentration of 100 μM, 30 μM and 10 μM. […] Incubate for 4 days in 5% CO2 incubator at 37° C. On day 4, 100 μl of medium was removed from each well without disturbing the cells. Add 10 μl of MTT reagent and incubate for 4 hours at 5% CO2 incubator at 37° C. for formation of crystals. Add 200 μl of 0.1N acidic isopropanol to dissolve the crystals and read the plate at 590 nm.

For `CC(C)C1=C2[C@H]3CC[C@@H]4[C@@]5(C)CC[C@H](OC(=O)[C@H]6C[C@@H](C(=O)O)C6(C)C)C(C)(C)[C@@H]5CC[C@@]4(C)[C@]3(C)CC[C@@]2(C(=O)N2CCCC2c2ncc(-c3ccccc3)[nH]2)CC1=O` (stereo partly drawn) [Example 1, (1R,3S)-3-((((3aR,5aR,5bR,7aR,9S,11aR,11bR,13aS)-1-isopropyl-5a,5b,8,8,11a-pentamethyl-2-oxo-3a-((S)-2-(5-phenyl-1H-imidazol-2-yl)pyrrolidine-1-carbonyl)-3,3a,4,5,5a,5b,6,7,7a,8,9,10,11,11a,11b,12,13,13a-octadecahydro-2H-cyclopenta[a]chrysen-9-yl)oxy)carbonyl)-2,2-dimethlcyclobutane-1-carboxylic acid], the IC50 (HIV-1 strain 92HT599; [2]) was 5.21 nM, the IC50 (HIV-1 strain 92HT599; [3]) was 3.92 nM and the inhibition at 0.01 µM (HIV-1 strain 92HT599) was 100%. The inhibition at 0.1 µM (HIV-1 strain 92HT599) was 98%, the inhibition at 1 µM (HIV-1 strain 92HT599) was 99% and the viability at 4 days, 10 μM (in vitro) was 80%. It also gave a viability at 4 days, 30 μM (in vitro) of 67%, a viability at 4 days, 100 μM (in vitro) of 62% and an AUC(0-t) [1] of 69800 ng·h/mL. It also gave a Cmax [1] of 8650 ng/mL.
In the case of `CC(C)C1=C2[C@H]3CC[C@@H]4[C@@]5(C)CC[C@H](OC(=O)[C@H]6C[C@@H](C(=O)O)C6(C)C)C(C)(C)[C@@H]5CC[C@@]4(C)[C@]3(C)CC[C@@]2(C(=O)N2CCC[C@H]2c2ncc(-c3ccc(F)cc3)[nH]2)CC1=O` [Example 2, (1R,3S)-3-((((3aR,5aR,5bR,7aR,9S,11aR,11bR,13aS)-3a-((S)-2-(5-(4-fluorophenyl)-1H-imidazol-2-yl)pyrrolidine-1-carbonyl)-1-isopropyl-5a,5b,8,8,11a-pentamethyl-2-oxo-3,3a,4,5,5a,5b,6,7,7a,8,9,10,11,11a,11b,12,13,13a-octadecahydro-2H-cyclopenta[a]chrysen-9-yl)oxy)carbonyl)-2,2-dimethlcyclobutane-1-carboxylic acid], the IC50 (HIV-1 strain 92HT599; [2]) is reported as 3.89 nM, the IC50 (HIV-1 strain 92HT599; [3]) is reported as 51.2 nM and the inhibition at 0.01 µM (HIV-1 strain 92HT599) is reported as 60%. The inhibition at 0.1 µM (HIV-1 strain 92HT599) was 100%, the inhibition at 1 µM (HIV-1 strain 92HT599) was 100% and the viability at 4 days, 10 μM (in vitro) was 100%. For the same molecule, the viability at 4 days, 30 μM (in vitro) was 100%, the viability at 4 days, 100 μM (in vitro) was 90% and the AUC(0-t) [1] was 148000 ng·h/mL. For the same molecule, the Cmax [1] was 11900 ng/mL.
Molecule `CC(C)C1=C2[C@H]3CC[C@@H]4[C@@]5(C)CC[C@H](OC(=O)[C@H]6C[C@@H](C(=O)O)C6(C)C)C(C)(C)[C@@H]5CC[C@@]4(C)[C@]3(C)CC[C@@]2(C(=O)N2CCC[C@H]2c2ncc(-c3cccnc3)[nH]2)CC1=O` [Example 3, (1R,3S)-3-((((3aR,5aR,5bR,7aR,9S,11aR,11bR,13aS)-1-isopropyl-5a,5b,8,8,11a-pentamethyl-2-oxo-3a-((S)-2-(5-(pyridin-3-yl)-1H-imidazol-2-yl)pyrrolidine-1-carbonyl)-3,3a,4,5,5a,5b,6,7,7a,8,9,10,11,11a,11b,12,13,13a-octadecahydro-2H-cyclopenta[a]chrysen-9-yl)oxy)carbonyl)-2,2-dimethlcyclobutane-1-carboxylic acid] has an IC50 (HIV-1 strain 92HT599; [2]) of 1.82 nM, an IC50 (HIV-1 strain 92HT599; [3]) of 0.81 nM and an inhibition at 0.01 µM (HIV-1 strain 92HT599) of 100%. It also gave an inhibition at 0.1 µM (HIV-1 strain 92HT599) of 100%, an inhibition at 1 µM (HIV-1 strain 92HT599) of 100% and a viability at 4 days, 10 μM (in vitro) of 98%. For the same molecule, the viability at 4 days, 30 μM (in vitro) was 67%, the viability at 4 days, 100 μM (in vitro) was 45% and the AUC(0-t) [1] was 48600 ng·h/mL. For the same molecule, the Cmax [1] was 8530 ng/mL.
With `CC(C)C1=C2[C@H]3CC[C@@H]4[C@@]5(C)CC[C@H](OC(=O)[C@H]6C[C@@H](C(=O)O)C6(C)C)C(C)(C)[C@@H]5CC[C@@]4(C)[C@]3(C)CC[C@@]2(C(=O)N2CC[C@@H](N3CCCC3)C2)CC1=O` [Example 4, (1R,3S)-3-((((3aR,5aR,5bR,7aR,9S,11aR,11bR,13aS)-3a-((R)-[1,3′-bipyrrolidine]-1′-carbonyl)-1-isopropyl-5a,5b,8,8,11a-pentamethyl-2-oxo-3,3a,4,5,5a,5b,6,7,7a,8,9,10,11,11a,11b,12,13,13a-octadecahydro-2H-cyclopenta[a]chrysen-9-yl)oxy)carbonyl)-2,2-dimethylcyclobutane-1-carboxylic acid] the IC50 (HIV-1 strain 92HT599; [2]) was 0.68 nM, the IC50 (HIV-1 strain 92HT599; [3]) was 54.5 nM and the inhibition at 0.01 µM (HIV-1 strain 92HT599) was 100%. The inhibition at 0.1 µM (HIV-1 strain 92HT599) was 100%, the inhibition at 1 µM (HIV-1 strain 92HT599) was 100% and the viability at 4 days, 10 μM (in vitro) was 62%. For the same molecule, the viability at 4 days, 30 μM (in vitro) was 6% and the viability at 4 days, 100 μM (in vitro) was 2%.
In the case of `CC(C)C1=C2[C@H]3CC[C@@H]4[C@@]5(C)CC[C@H](OC(=O)[C@H]6C[C@@H](C(=O)O)C6(C)C)C(C)(C)[C@@H]5CC[C@@]4(C)[C@]3(C)CC[C@@]2(C(=O)N2CCC[C@H]2CN2CCC[C@H]2CO)CC1=O` [Example 5, (1R,3S)-3-((((3aR,5aR,5bR,7aR,9S,11aR,11bR,13aS)-3a-((S)-2-(((S)-2-(hydroxymethyl)pyrrolidin-1-yl)methyl)pyrrolidine-1-carbonyl)-1-isopropyl-5a,5b,8,8,11a-pentamethyl-2-oxo-3,3a,4,5,5a,5b,6,7,7a,8,9,10,11,11a,11b,12,13,13a-octadecahydro-2H-cyclopenta[a]chrysen-9-yl)oxy)carbonyl)-2,2-dimethlcyclobutane-1-carboxylic acid], the IC50 (HIV-1 strain 92HT599; [2]) is reported as 0.93 nM, the IC50 (HIV-1 strain 92HT599; [3]) is reported as 25.5 nM and the inhibition at 0.01 µM (HIV-1 strain 92HT599) is reported as 100%. The inhibition at 0.1 µM (HIV-1 strain 92HT599) was 100%, the inhibition at 1 µM (HIV-1 strain 92HT599) was 100% and the viability at 4 days, 10 μM (in vitro) was 70%. For the same molecule, the viability at 4 days, 30 μM (in vitro) was 70% and the viability at 4 days, 100 μM (in vitro) was 73%.
Molecule `CC(C)C1=C2[C@H]3CC[C@@H]4[C@@]5(C)CC[C@H](OC(=O)[C@H]6C[C@@H](C(=O)O)C6(C)C)C(C)(C)[C@@H]5CC[C@@]4(C)[C@]3(C)CC[C@@]2(C(=O)N2CCC[C@H]2CN2CCC(F)(F)C2)CC1=O` [Example 6, (1R,3S)-3-((((3aR,5aR,5bR,7aR,9S,11aR,11bR,13aS)-3a-((S)-2-((3,3-difluoropyrrolidin-1-yl)methyl)pyrrolidine-1-carbonyl)-1-isopropyl-5a,5b,8,8,11a-pentamethyl-2-oxo-3,3a,4,5,5a,5b,6,7,7a,8,9,10,11,11a,11b,12,13,13a-octadecahydro-2H-cyclopenta[a]chrysen-9-yl)oxy)carbonyl)-2,2-dimethylcyclobutane-1-carboxylic acid] has an IC50 (HIV-1 strain 92HT599; [2]) of 0.72 nM, an IC50 (HIV-1 strain 92HT599; [3]) of 203 nM and an inhibition at 0.01 µM (HIV-1 strain 92HT599) of 100%. The inhibition at 0.1 µM (HIV-1 strain 92HT599) was 100%, the inhibition at 1 µM (HIV-1 strain 92HT599) was 100% and the viability at 4 days, 10 μM (in vitro) was 57%. For the same molecule, the viability at 4 days, 30 μM (in vitro) was 10%, the viability at 4 days, 100 μM (in vitro) was 6% and the AUC(0-t) [1] was 76600 ng·h/mL. It also gave a Cmax [1] of 11500 ng/mL.
Work on `CC(C)C1=C2[C@H]3CC[C@@H]4[C@@]5(C)CC[C@H](OC(=O)[C@H]6C[C@@H](C(=O)O)C6(C)C)C(C)(C)[C@@H]5CC[C@@]4(C)[C@]3(C)CC[C@@]2(C(=O)N2CCC[C@H]2CN2CCC(F)(F)CC2)CC1=O` [Example 7, (1R,3S)-3-((((3aR,5aR,5bR,7aR,9S,11aR,11bR,13aS)-3a-((S)-2-((4,4-difluoropiperidin-1-yl)methyl)pyrrolidine-1-carbonyl)-1-isopropyl-5a,5b,8,8,11a-pentamethyl-2-oxo-3,3a,4,5,5a,5b,6,7,7a,89,10,11,11a,11b,12,13,13a-octadecahydro-2H-cyclopenta[a]chrysen-9-yl)oxy)carbonyl)-2,2-dimethylcyclobutane-1-carboxylic acid] yielded an IC50 (HIV-1 strain 92HT599; [2]) of 24.7 nM, an IC50 (HIV-1 strain 92HT599; [3]) of 313 nM and an inhibition at 0.01 µM (HIV-1 strain 92HT599) of 100%. The inhibition at 0.1 µM (HIV-1 strain 92HT599) was 100%, the inhibition at 1 µM (HIV-1 strain 92HT599) was 100% and the viability at 4 days, 10 μM (in vitro) was 65%. The viability at 4 days, 30 μM (in vitro) was 9%, the viability at 4 days, 100 μM (in vitro) was 8% and the AUC(0-t) [1] was 28800 ng·h/mL. The Cmax [1] was 7410 ng/mL.
For `CC(C)C1=C2[C@H]3CC[C@@H]4[C@@]5(C)CC[C@H](OC(=O)[C@H]6C[C@@H](C(=O)O)C6(C)C)C(C)(C)[C@@H]5CC[C@@]4(C)[C@]3(C)CC[C@@]2(C(=O)N2CCC[C@H]2CN2CCC(F)CC2)CC1=O` [Example 10, (1R,3S)-3-((((3aR,5aR,5bR,7aR,9S,11aR,11bR,13aS)-3a-((S)-2-((4-fluoropiperidin-1-yl)methyl)pyrrolidine-1-carbonyl)-1-isopropyl-5a,5b,8,8,11a-pentamethyl-2-oxo-3,3a,4,5,5a,5b,6,7,7a,8,9,10,11,11a,11b,12,13,13a-octadecahydro-2H-cyclopenta[a]chrysen-9-yl)oxy)carbonyl)-2,2-dimethylcyclobutane-1-carboxylic acid], the IC50 (HIV-1 strain 92HT599; [2]) was 1.06 nM, the IC50 (HIV-1 strain 92HT599; [3]) was 0.93 nM and the inhibition at 0.01 µM (HIV-1 strain 92HT599) was 97%. For the same molecule, the inhibition at 0.1 µM (HIV-1 strain 92HT599) was 100%, the inhibition at 1 µM (HIV-1 strain 92HT599) was 100% and the viability at 4 days, 10 μM (in vitro) was 31%. For the same molecule, the viability at 4 days, 30 μM (in vitro) was 4% and the viability at 4 days, 100 μM (in vitro) was 4%.
